# Results from patent US6251853A, “PTX sensitive G proteins, the production and use thereof” (priority 1996, dated 2001).
# pEC50: −log10 of the molar value.
# Tests used:
# PTX-sensitive G proteins = assay: mastoparan 7-stimulated [35S]GTPγS binding to isolated cell membranes from normotensives and hypertensives; type: biochemical, human
# Procedure: (§1) A detailed characterization was carried out of the activation of G proteins from cells of normotensive subjects and hypertensive patients. For this purpose, the stimulated incorporation of radiolabeled [^35 S] GTPγS was quantified by the method described by Wieland et al. (Wieland, T., Liedel, K., Xaldenberg-Stasch, S., Meyer zu Heringdorf, D., Schmidt, M., and Jakobs, K. E. Analysis of receptor-G protein interactions in permeabilized cells. Naunyn-Schmiedeberg's Arch.Pharmacol. 351:329-336,1995). G Proteins were activated initially by stimulating cells which had been permeabilized with digitonin using the peptide mastoparan 7. This peptide simulates the configuration of an activated G protein-coupled receptor so that it can be used to induce direct G protein activation independent of receptors (Ross, E. M. and Higashijima, T. Regulation of G protein activation by mastoparan and other cationic peptides. Methods Enzymol. 237:27-38, 1994). The binding of GTPγS induced by MAS-7 is completely PTX-sensitive so that it can be used to quantify the activation of heterotrimeric G proteins of the Gi type. […] MAS-7 induces strong [^35 S] GTPγS binding on HT cells with an EC50 of about 5 μm (FIG. 2). Maximum binding is reached at about 25 to 50 μm MAS-7. In contrast to this, the concentration required for the same [^35 S] GTPγS binding to NT cells are [sic] 10 times higher (FIG. 2).
# GTPγS to isolated cell membranes from normotensives and hypertensives. It is evident that the maximum stimulated binding of [^35 S] GTPγS to membranes from hypertensives occurs at lower concentrations of GDP (about 0.2 μmol/l), where a concentration of 1 μmol/l GDP is required for the same effect in normotensives.
# In a similar way, the maximum binding, stimulated by mastoparan 7, of [^35 S] GTPγS to membrane preparations from hypertensive cells a low concentration of free Mg^2+ (about 0.01 mmol/l), while a free Mg^2+ concentration of 0.1 mmol/l is necessary for the same maximum binding of [^35 S] GTPγS to membranes from normotensive cells (FIG. 5).
# [1] = system: PTX-sensitive G proteins (heterotrimeric G proteins of the Gi type); assay: mastoparan 7-stimulated [35S]GTPγS binding to digitonin-permeabilized cells from normotensives and hypertensives; type: cell-based, human
# Procedure: as §1
# GTPγS to cell lines from normotensives (NT) and hypertensives (HT).
# The binding of [^35 S] GTPγS to hypertensive cells is distinctly speeded up (rate constants 0.005 s^-1 in the normotensive versus 0.01 s^-1 in the hypertensive state).
compound,measurement,setting,value
Nc1nc2c(ncn2[C@@H]2O[C@H](COP(=O)(O)OP(=O)(O)O)[C@@H](O)[C@H]2O)c(=O)[nH]1 [GDP],GDP concentration at which maximum mastoparan 7-stimulated [35S]GTPγS binding occurs,PTX-sensitive G proteins; membranes from hypertensives,about 0.2 μmol/l
same,GDP concentration required for maximum mastoparan 7-stimulated [35S]GTPγS binding,PTX-sensitive G proteins; membranes from normotensives,1 µmol/L
[Mg+2] [Mg^2+],free Mg2+ concentration for maximum mastoparan 7-stimulated [35S]GTPγS binding,PTX-sensitive G proteins; membrane preparations from hypertensive cells,about 0.01 mmol/l
same,free Mg2+ concentration for maximum mastoparan 7-stimulated [35S]GTPγS binding,PTX-sensitive G proteins; membranes from normotensive cells,0.1 mmol/L
mastoparan 7 [MAS-7],pEC50,"[1]; HT (hypertensive) cells, digitonin-permeabilized, read-out: EC50 of induced [35S]GTPγS binding",~5.30
same,"concentration required for the same [35S]GTPγS binding to NT cells, relative to HT cells",[1]; NT (normotensive) versus HT cells,10 times higher
same,rate constant of stimulated [35S]GTPγS binding,[1]; hypertensive state,0.01 s⁻¹
same,rate constant of stimulated [35S]GTPγS binding,[1]; normotensive state,0.005 s⁻¹
